In the supplement of paper PMC10307832:

Assays:
Experiment in all cases: relative viability (nuclei count vs DMSO), 5 days (fraction); higher = more cells survive
NCI-H1703 = test system: NCI-H1703
Summary of the method: (§1)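 Values are medians from duplicate plates. Each reflects relative viability, defined as the nuclei count of treated wells over that of vehicle wells. Lung cancer cell lines in 1536-well plates were pin-tool dosed one day after seeding with one drug alone or with a fixed anchor-drug dose plus five library-drug doses (not always all listed) in √10 steps, then fixed, stained and imaged at 4× after 5 days.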

NCI-H522 = test system: NCI-H522
Summary of the method: as §1

NCI-H1299 = test system: NCI-H1299
Summary of the method: as §1

NCI-H1648 = test system: NCI-H1648
Summary of the method: as §1

NCI-H1355 = test system: NCI-H1355
Summary of the method: as §1

IA-LM = test system: IA-LM
Summary of the method: as §1

NCI-H520 = test system: NCI-H520
Summary of the method: as §1

A549 = test system: A549
Summary of the method: as §1

EBC-1 = test system: EBC-1
Summary of the method: as §1

Calu-6 = test system: Calu-6
Summary of the method: as §1

LCLC-103H = test system: LCLC-103H
Summary of the method: as §1

NC(=O)Nc1cc(-c2cccc(F)c2)sc1C(=O)N[C@H]1CCCNC1 [AZD7762] + O=C(c1cc(Cc2n[nH]c(=O)c3ccccc23)ccc1F)N1CCN(C(=O)C2CC2)CC1 [Olaparib] (partner 8 µM)
relative viability (NCI-H1703; first compound 0.01 µM): 0.305 | relative viability (NCI-H1703; first compound 0.03162 µM): 0.214 | relative viability (NCI-H1703; first compound 0.1 µM): 0.206 | relative viability (NCI-H1703; first compound 0.3162 µM): 0.168 | relative viability (NCI-H1703; first compound 1 µM): 0.12 | relative viability (NCI-H522; first compound 0.01 µM): 0.711 | relative viability (NCI-H522; first compound 0.03162 µM): 0.631 | relative viability (NCI-H522; first compound 0.1 µM): 0.676 | relative viability (NCI-H522; first compound 0.3162 µM): 0.59 | relative viability (NCI-H522; first compound 1 µM): 0.632 | relative viability (NCI-H1299; first compound 0.01 µM): 1.02 | relative viability (NCI-H1299; first compound 0.03162 µM): 1 | relative viability (NCI-H1299; first compound 0.1 µM): 0.954 | relative viability (NCI-H1299; first compound 0.3162 µM): 0.688 | relative viability (NCI-H1299; first compound 1 µM): 0.312 | relative viability (NCI-H1648; first compound 0.01 µM): 0.639 | relative viability (NCI-H1648; first compound 0.03162 µM): 0.994 | relative viability (NCI-H1648; first compound 0.1 µM): 0.751 | relative viability (NCI-H1648; first compound 0.3162 µM): 0.934 | relative viability (NCI-H1648; first compound 1 µM): 0.61 | relative viability (NCI-H1355; first compound 0.01 µM): 0.705 | relative viability (NCI-H1355; first compound 0.03162 µM): 0.798 | relative viability (NCI-H1355; first compound 0.1 µM): 0.862 | relative viability (NCI-H1355; first compound 0.3162 µM): 0.862 | relative viability (NCI-H1355; first compound 1 µM): 0.615 | relative viability (IA-LM; first compound 0.01 µM): 1.07 | relative viability (IA-LM; first compound 0.03162 µM): 0.796 | relative viability (IA-LM; first compound 0.1 µM): 0.891 | relative viability (IA-LM; first compound 0.3162 µM): 0.655 | relative viability (IA-LM; first compound 1 µM): 0.171 | relative viability (NCI-H520; first compound 0.01 µM): 0.367 | relative viability (NCI-H520; first compound 0.03162 µM): 0.364 | relative viability (NCI-H520; first compound 0.1 µM): 0.27 | relative viability (NCI-H520; first compound 0.3162 µM): 0.223 | relative viability (NCI-H520; first compound 1 µM): 0.194 | relative viability (A549; first compound 0.01 µM): 0.37 | relative viability (A549; first compound 0.03162 µM): 0.387 | relative viability (A549; first compound 0.1 µM): 0.381 | relative viability (A549; first compound 0.3162 µM): 0.481 | relative viability (A549; first compound 1 µM): 0.155 | relative viability (EBC-1; first compound 0.01 µM): 0.848 | relative viability (EBC-1; first compound 0.03162 µM): 0.915 | relative viability (EBC-1; first compound 0.1 µM): 0.872 | relative viability (EBC-1; first compound 0.3162 µM): 0.717 | relative viability (EBC-1; first compound 1 µM): 0.451 | relative viability (Calu-6; first compound 0.01 µM): 0.636 | relative viability (Calu-6; first compound 0.03162 µM): 0.47 | relative viability (Calu-6; first compound 0.1 µM): 0.375 | relative viability (Calu-6; first compound 0.3162 µM): 0.166 | relative viability (Calu-6; first compound 1 µM): 0.109 | relative viability (LCLC-103H; first compound 0.01 µM): 0.827 | relative viability (LCLC-103H; first compound 0.03162 µM): 0.705 | relative viability (LCLC-103H; first compound 0.1 µM): 0.733 | relative viability (LCLC-103H; first compound 0.3162 µM): 0.772 | relative viability (LCLC-103H; first compound 1 µM): 0.714
